Results published in PubChem BioAssay (NCI).
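The concentration for 50% growth inhibition is given as GI50. TGI: concentration producing complete growth inhibition.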

How the values were obtained:
Assay in all cases: growth of human tumour cells (NCI), 384-well format
[1] = system: SR leukemia
[2] = system: SF-295 CNS
[3] = system: NCI-H522 lung
[4] = system: NCI-H226 lung
[5] = system: UO-31 renal
[6] = system: OVCAR-8 ovarian
[7] = system: HCC-2998 colon
[8] = system: HOP-92 NSCLC
[9] = system: MALME-3M melanoma
[10] = system: SK-MEL-5 melanoma
[11] = system: RXF 393 renal
[12] = system: NCI-H23 lung
[13] = system: DU-145 prostate
[14] = system: OVCAR-4 ovarian
[15] = system: OVCAR-5 ovarian
[16] = system: UACC-257 melanoma
[17] = system: MCF7 breast
[18] = system: HOP-62 NSCLC
[19] = system: HT29 colon
[20] = system: ACHN renal
[21] = system: EKVX NSCLC
[22] = system: CAKI-1 renal
[23] = system: U251 glioblastoma
[24] = system: MDA-MB-435 melanoma
[25] = system: HCT-116 colon
[26] = system: LOX IMVI melanoma
[27] = system: CCRF-CEM leukemia
[28] = system: NCI/ADR-RES ovarian
[29] = system: HS 578T breast
[30] = system: RPMI-8226 leukemia
[31] = system: BT-549 breast
[32] = system: IGROV1 ovarian
[33] = system: SNB-19 CNS
[34] = system: KM12 colon
[35] = system: SNB-75 CNS
[36] = system: MDA-MB-231 breast
[37] = system: SF-539 CNS
[38] = system: SW-620 colon
[39] = system: SN12C renal
[40] = system: HL-60(TB) leukemia
[41] = system: T-47D breast
[42] = system: OVCAR-3 ovarian
[43] = system: SK-MEL-28 melanoma
[44] = system: NCI-H322M lung
[45] = system: A549 NSCLC
[46] = system: NCI-H460 NSCLC
[47] = system: TK-10 renal
[48] = system: COLO 205 colon
[49] = system: K-562 leukemia
[50] = system: SF-268 CNS
[51] = system: M14 melanoma
[52] = system: A498 renal
[53] = system: MDA-MB-468 breast
[54] = system: SK-OV-3 ovarian
[55] = system: MOLT-4 leukemia
[56] = system: 786-0 renal
[57] = system: PC-3 prostate
[58] = system: HCT-15 colon

SMILES: Nc1ccccc1NC(=O)c1ccc(CNC(=O)OCc2cccnc2)cc1
- GI50 [1]: 31 nM
- TGI [1]: 105 nM
- GI50 [2]: 878 nM
- TGI [2]: 2110 nM
- GI50 [3]: 673 nM
- TGI [3]: 2680 nM
- GI50 [4]: 1070 nM
- TGI [4]: 4880 nM
- GI50 [5]: 1660 nM
- TGI [5]: 13100 nM
- GI50 [6]: 368 nM
- TGI [6]: 2090 nM
- GI50 [7]: 558 nM
- TGI [7]: 1940 nM
- GI50 [8]: 256 nM
- TGI [8]: 920 nM
- GI50 [9]: 109 nM
- TGI [9]: 255 nM
- GI50 [10]: 243 nM
- TGI [10]: 457 nM
- GI50 [11]: 239 nM
- TGI [11]: 918 nM
- GI50 [12]: 790 nM
- TGI [12]: 4450 nM
- GI50 [13]: 338 nM
- TGI [13]: 6410 nM
- GI50 [14]: 1330 nM
- TGI [14]: 3630 nM
- GI50 [15]: 727 nM
- TGI [15]: 5000 nM
- GI50 [16]: 375 nM
- TGI [16]: 1380 nM
- GI50 [17]: 404 nM
- TGI [17]: 1940 nM
- GI50 [18]: 785 nM
- TGI [18]: 3620 nM
- GI50 [19]: 563 nM
- TGI [19]: 2560 nM
- GI50 [20]: 600 nM
- TGI [20]: 2620 nM
- GI50 [21]: 2860 nM
- TGI [21]: 90500 nM
- GI50 [22]: 918 nM
- TGI [22]: 2950 nM
- GI50 [23]: 607 nM
- TGI [23]: 1910 nM
- GI50 [24]: 652 nM
- TGI [24]: 2400 nM
- GI50 [25]: 295 nM
- TGI [25]: 1190 nM
- GI50 [26]: 357 nM
- TGI [26]: 1050 nM
- GI50 [27]: 190 nM
- TGI [27]: 368 nM
- GI50 [28]: 1460 nM
- TGI [28]: 4020 nM
- GI50 [29]: 271 nM
- TGI [29]: 1070 nM
- GI50 [30]: 20.5 nM
- TGI [30]: 45.3 nM
- GI50 [31]: 467 nM
- TGI [31]: 3320 nM
- GI50 [32]: 363 nM
- TGI [32]: 1720 nM
- GI50 [33]: 1780 nM
- TGI [33]: 6060 nM
- GI50 [34]: 2240 nM
- TGI [34]: 19900 nM
- GI50 [35]: 1130 nM
- TGI [35]: 13700 nM
- GI50 [36]: 511 nM
- TGI [36]: 2860 nM
- GI50 [37]: 1630 nM
- TGI [37]: 14800 nM
- GI50 [38]: 521 nM
- TGI [38]: 2160 nM
- GI50 [39]: 1600 nM
- TGI [39]: 3280 nM
- GI50 [40]: 206 nM
- TGI [40]: 350 nM
- GI50 [41]: 487 nM
- TGI [41]: 1220 nM
- GI50 [42]: 936 nM
- TGI [42]: 3130 nM
- GI50 [43]: 234 nM
- TGI [43]: 493 nM
- GI50 [44]: 1550 nM
- TGI [44]: 6500 nM
- GI50 [45]: 1910 nM
- TGI [45]: 14700 nM
- GI50 [46]: 352 nM
- TGI [46]: 7660 nM
- GI50 [47]: 441 nM
- TGI [47]: 3820 nM
- GI50 [48]: 775 nM
- TGI [48]: 2420 nM
- GI50 [49]: 185 nM
- TGI [49]: 1160 nM
- GI50 [50]: 220 nM
- TGI [50]: 719 nM
- GI50 [51]: 658 nM
- TGI [51]: 5660 nM
- GI50 [52]: 399 nM
- TGI [52]: 1860 nM
- GI50 [53]: 244 nM
- TGI [53]: 713 nM
- GI50 [54]: 1500 nM
- TGI [54]: 5100 nM
- GI50 [55]: 164 nM
- TGI [55]: 303 nM
- GI50 [56]: 2100 nM
- TGI [56]: 14900 nM
- GI50 [57]: 1040 nM
- TGI [57]: 16400 nM
- GI50 [58]: 1440 nM
- TGI [58]: 9090 nM
